This assay addresses T1, DmOctβ1 receptor (Drosophila melanogaster, UniProt Q9VCZ3).
T1 construct: expressed in transfected cells; host or cells: flpTM cells (HEK293 flpIn, Invitrogen #750-07, carrying the CNGA2 variant)
T1 sequence (Q9VCZ3 1-508): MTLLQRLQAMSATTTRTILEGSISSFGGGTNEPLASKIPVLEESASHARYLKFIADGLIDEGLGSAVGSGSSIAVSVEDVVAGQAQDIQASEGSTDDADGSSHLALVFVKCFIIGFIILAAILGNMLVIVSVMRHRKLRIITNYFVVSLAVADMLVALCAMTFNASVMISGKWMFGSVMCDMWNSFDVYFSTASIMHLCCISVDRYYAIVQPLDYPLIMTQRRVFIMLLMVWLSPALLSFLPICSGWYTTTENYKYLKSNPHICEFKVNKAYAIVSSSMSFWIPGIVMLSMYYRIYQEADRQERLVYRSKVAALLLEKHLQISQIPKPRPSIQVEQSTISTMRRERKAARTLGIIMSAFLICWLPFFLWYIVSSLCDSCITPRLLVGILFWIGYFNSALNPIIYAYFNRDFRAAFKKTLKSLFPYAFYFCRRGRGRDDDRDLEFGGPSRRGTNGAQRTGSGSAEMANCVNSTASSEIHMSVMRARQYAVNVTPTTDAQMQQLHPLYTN
The assay is described as follows: Stopped-flow Ca2+ fluorescence measurements, flpTM-DmOctβ1 cells, octopamine. Type of assay: cell-based. The procedure: In successive stopped-flow measurements, the flpTM-DmOctβ1 cells loaded with Fluo-4 were stimulated with increasing octopamine (1 nM–3 µM) and NKH477 (100 nM–300 µM) concentrations. The fluorescence intensities were monitored over 80 s and 100 s, respectively (Figure 4A1,B1). The fluorescence intensities increased and finally reached a plateau with increasing concentrations of both of the ligands. However, the saturating ligand concentrations differed strongly between octopamine (≥300 nM) and NKH477 (≥100 µM). By plotting the maximal changes in fluorescence (ΔF/F0) against ligand concentrations, concentration–response curves were generated and EC50 values were calculated (Figure 4C). […] As observed for the DmOctα1B cell lines (see Figure 3D), the signal response times of flpTM-DmOctβ1 cells were faster at higher ligand concentrations (Figure 4A2,B2). In Figure 4D, the time until the signals were detected (for details, see Materials and Methods, Section 4.4) are plotted for the ligand concentrations covering the calculated EC50 value (dynamic range) and for saturating concentrations (saturating range). The signal response times of the flpTM-DmOctβ1 cells for octopamine were in the range of 30 s (dynamic range) and 6 s (saturating range), whereas the signal detection upon NKH477 application was observed after 50 s (dynamic range) and 16 s (saturating range). The signal response times were about three- to five-fold faster at the saturating concentrations in comparison to the octopamine and NKH477 concentrations in the dynamic range.
As described for the Fluo-4-loaded flpTM-DmOctβ1 cells, similar experiments were performed with the flpTM-DmOctβ1-GCaMP3.0 cells (Figure 5). The cells were successively mixed with increasing concentrations of octopamine (30 pM–100 nM) or NKH477 (30 nM–100 µM) and the fluorescence intensities were recorded over 100 s. For both of the ligands, increasing ligand concentrations led to an increase in the fluorescence emission finally reaching a plateau (Figure 5A1,B1).
For the stopped-flow measurements, the SFM-400 system (BioLogic, Münster, Germany) was used. The main component of the stopped-flow setup is the SFM-400 module with four 10 mL syringes, which can be filled by external valves. The syringes are driven by step motors. The reactants can be mixed in three individual mixing chambers (M1–M3). The volume between M1 and M2 is 21 µL, and 31 µL between M2 and M3. The observation chamber is a quartz cuvette (FC-15) with a reaction volume of 31 µL, installed behind M3. To avoid fluctuations of the reaction mixture in the cuvette, which might lead to noisy and inconsistent signals, a hard stop valve located behind the cuvette can be closed after injection of the reactants. The stopped-flow module is controlled via a MPS-60 control unit (BioLogic). Data acquisition and operation of the system were performed with the Bio-Kine 32 v4.74 software (BioLogic).
The reactions in the cuvette were analyzed via the changes in the fluorescence. A 150 W Xe/Hg-lamp (ALX-220; BioLogic) was used as a light source for the excitation. The excitation light was guided via a light guide towards the cuvette. To determine the wavelength of the excitation light, a 482 nm bandpass filter (482/35 nm BrightLine® single-band bandpass filter; Semrock, Rochester, NY, USA) was used. A heat protection filter (3 mm; KG1, Schott; Mainz, Germany) was placed between the Xe/Hg-lamp and the excitation filter. The fluorescence was detected with a photomultiplier (PMS 200, BioLogic) installed rectangularly to the light path of the excitation light. Between the cuvette and the photomultiplier tube a 535 nm bandpass emission filter (XF3007 535AF35; Horiba, Oberursel, Germany) was placed to select for the emission light being detected by the photomultiplier. A voltage of 600 V was applied to the photomultiplier.
The fluorescence measurements were performed either directly with the cells expressing GCaMP3.0 or after loading the cells with Fluo-4-AM. […]

Values joined by “and” are separate entries in the source; they are usually repeats but may differ in a detail not shown here. Equal values may be shown once. Where only a bound is given, the exact number is not on record here.

Results on one compound are retold here after paper PMC9369311, “Examination of Intracellular GPCR-Mediated Signaling with High Temporal Resolution” (International Journal of Molecular Sciences, 2022).

For orientation: EC50 means the concentration giving half of the maximal effect. Regarding `NCC(O)c1ccc(O)cc1` (stereo not drawn) [octopamine], the Signal Response Time by setting is: (dynamic range (concentrations around EC50), flpTM-DmOctβ1 cells loaded with Fluo-4) about 30 s; (saturating concentration, flpTM-DmOctβ1-GCaMP3.0 cells, mean ± SEM) about 6 s; (saturating concentration, flpTM-DmOctβ1-GCaMP3.0 cells, mean ± SEM, listed as Octopamine) 6.00 ± 0.20 s; (saturating concentration, flpTM-DmOctβ1 cells loaded with Fluo-4, mean ± SEM) about 6 s; (saturating concentration, flpTM-DmOctβ1 cells loaded with Fluo-4, mean ± SEM, listed as Octopamine) 6.00 ± 0.13 s; (saturating ligand concentration, flpTM-DmOctβ1 cell lines, Fluo-4 and GCaMP3.0) 6 s and ≈ 6 s. Moreover, the EC50 was ~1.8 nM and 1.78 nM and 1.8 nM (stopped-flow, flpTM-DmOctβ1-GCaMP3.0 cells, mean ± SEM); ~22 nM and 22 nM (stopped-flow, flpTM-DmOctβ1 cells loaded with Fluo-4, mean ± SEM). The saturating ligand concentration (stopped-flow, flpTM-DmOctβ1 cells loaded with Fluo-4) is listed as at least 300 nM.
